molecular target: T1, human PAH with the R408W mutation (Homo sapiens, UniProt P00439, R408W); assay: Cell Based Phenylalanine Flux Assay; settings: A375 cells expressing human R408W PAH; 24 hrs with compound; 13C-Tyrosine by LC-MS; average where tested multiple times; read-out: AC50
T1 construct: expressed in transfected cells
T1 sequence (P00439 1-452 R408W): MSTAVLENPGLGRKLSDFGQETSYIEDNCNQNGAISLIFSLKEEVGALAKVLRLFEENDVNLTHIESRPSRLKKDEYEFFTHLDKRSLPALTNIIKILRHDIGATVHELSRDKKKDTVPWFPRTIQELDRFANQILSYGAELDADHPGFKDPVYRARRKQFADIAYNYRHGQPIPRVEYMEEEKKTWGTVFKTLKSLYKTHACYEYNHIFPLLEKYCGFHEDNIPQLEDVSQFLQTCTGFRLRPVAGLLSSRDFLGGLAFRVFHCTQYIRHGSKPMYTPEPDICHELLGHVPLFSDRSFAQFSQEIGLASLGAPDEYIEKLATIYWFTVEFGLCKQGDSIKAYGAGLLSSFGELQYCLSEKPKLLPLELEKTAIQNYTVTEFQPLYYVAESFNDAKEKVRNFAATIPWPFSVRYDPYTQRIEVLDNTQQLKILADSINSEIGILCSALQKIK

| AC50 [µM] | SMILES |
| --- | --- |
| > 5 | CC(C)(O)Cn1ncc(C(=O)N2CCc3[nH]cnc3C2c2nc3c(F)cccc3s2)c1Cl (stereo not shown) [listing 1 of 2 here] |
| > 5 | CC(C)(O)c1nc(C(=O)N2CCc3[nH]cnc3C2c2nc3c(F)cccc3s2)no1 (stereo not shown) [listing 1 of 2 here] |
| 1 to 5 | Cn1nc(C(F)(F)F)nc1C(=O)N1CCc2[nH]cnc2C1c1nc2ccccc2s1 (stereo not shown) |
| > 5 | Cn1nc(C2CC2)nc1C(=O)N1CCc2[nH]cnc2C1c1nc2c(F)cccc2s1 (stereo not shown) |
| > 5 | Cc1cccc2sc(C3c4nc[nH]c4CCN3C(=O)c3cnn(C)c3Cl)nc12 (stereo not shown) |
| > 5 | Cn1ccc(C(=O)N2CCc3[nH]cnc3C2c2nc3c(F)cccc3s2)n1 (stereo not shown) |
| > 5 | O=C(c1ccn[nH]1)N1CCc2[nH]cnc2C1c1nc2c(F)cccc2s1 (stereo not shown) |
| > 5 | Cn1nnc(C(=O)N2CCc3[nH]cnc3C2c2nc3c(F)cccc3s2)n1 (stereo not shown) |
| > 5 | Cc1nc(N2CCN(C)CC2)oc1C(=O)N1CCc2[nH]cnc2C1c1nc2c(F)cccc2s1 (stereo not shown) |
| > 5 | Cc1nc(N2CCOCC2)oc1C(=O)N1CCc2[nH]cnc2C1c1nc2c(F)cccc2s1 (stereo not shown) |
| > 5 | CNC(C)(C)c1nc(C)c(C(=O)N2CCc3[nH]cnc3C2c2nc3c(F)cccc3s2)o1 (stereo not shown) |
| 1 to 5 | CC(C)(O)Cn1ncc(C(=O)N2CCc3[nH]cnc3C2c2nc3c(F)cccc3s2)c1C(F)F (stereo not shown) [listing 2 of 2 here] |
| > 5 | Cn1cnc(C(=O)N2CCc3[nH]cnc3C2c2nc3ccccc3s2)n1 (stereo not shown) |
| 1 to 5 | Cn1ccc(C(=O)N2CCc3[nH]cnc3C2c2nc3ccccc3s2)n1 (stereo not shown) |
| 1 to 5 | O=C(c1cn[nH]c1)N1CCc2[nH]cnc2C1c1nc2ccccc2s1 (stereo not shown) |
| 1 to 5 | O=C(c1ccn[nH]1)N1CCc2[nH]cnc2C1c1nc2ccccc2s1 (stereo not shown) [listing 2 of 2 here] |
| 1 to 5 | Cc1nc(C(=O)N2CCc3[nH]cnc3C2c2nc3ccccc3s2)n(C)n1 (stereo not shown) [listing 2 of 2 here] |
| 1 to 5 | O=C(c1cnco1)N1CCc2[nH]cnc2C1c1nc2c(C(F)(F)F)cccc2s1 (stereo not shown) |

The next lines start with the compound.

| SMILES | AC50 [µM] |
| --- | --- |
| CC(C)(O)Cn1ncc(C(=O)N2CCc3[nH]cnc3C2c2nc3c(F)cccc3s2)c1C(F)F (stereo not shown) [listing 1 of 2 here] | > 5 |
| CC(C)(O)c1cc(C(=O)N2CCc3[nH]cnc3C2c2nc3ccccc3s2)no1 (stereo not shown) [listing 1 of 2 here] | > 5 |
| CC(C)(O)c1cc(C(=O)N2CCc3[nH]cnc3C2c2nc3c(F)cccc3s2)no1 (stereo not shown) [listing 1 of 2 here] | > 5 |
| CC(C)(O)c1cc(C(=O)N2CCc3[nH]cnc3C2c2nc3c(F)cccc3s2)ns1 (stereo not shown) [listing 1 of 2 here] | > 5 |
| O=C(c1ccn[nH]1)N1CCc2[nH]cnc2C1c1nc2ccccc2s1 (stereo not shown) [listing 1 of 2 here] | > 5 |
| Cc1nc(C(=O)N2CCc3[nH]cnc3C2c2nc3c(F)cccc3s2)n(C)n1 (stereo not shown) [listing 1 of 2 here] | > 5 |
| Cc1nc(C(=O)N2CCc3[nH]cnc3C2c2nc3ccccc3s2)n(C)n1 (stereo not shown) [listing 1 of 2 here] | > 5 |
| CC(C)(O)c1cc(C(=O)N2CCc3[nH]cnc3C2c2nc3ccccc3s2)on1 (stereo not shown) | > 5 |
| CC(C)(O)c1cc(C(=O)N2CCc3[nH]cnc3C2c2nc3ccccc3s2)sn1 (stereo not shown) | > 5 |
| Cn1nc(CC#N)nc1C(=O)N1CCc2[nH]cnc2C1c1nc2ccccc2s1 (stereo not shown) | > 5 |
| CC(C)(O)c1noc(C(=O)N2CCc3[nH]cnc3C2c2nc3ccccc3s2)n1 (stereo not shown) | > 5 |
| CC(C)(O)c1nsc(C(=O)N2CCc3[nH]cnc3C2c2nc3c(F)cccc3s2)n1 (stereo not shown) | > 5 |
| CC(C)(O)c1cc(C(=O)N2CCc3[nH]cnc3C2c2nc3c(F)cccc3s2)sn1 (stereo not shown) | > 5 |
| CC(C)(O)c1noc(C(=O)N2CCc3[nH]cnc3C2c2nc3c(F)cccc3s2)n1 (stereo not shown) | > 5 |
| Cn1nc(CC#N)nc1C(=O)N1CCc2[nH]cnc2C1c1nc2c(F)cccc2s1 (stereo not shown) | > 5 |
| O=C(c1cnn(CCO)c1Cl)N1CCc2[nH]cnc2C1c1nc2c(F)cccc2s1 (stereo not shown) | > 5 |
| O=C(c1cn[nH]c1)N1CCc2nc[nH]c2C1c1nc2c(F)cccc2s1 (stereo not shown) | > 5 |
| CC(C)(O)Cn1cc(C(=O)N2CCc3[nH]cnc3C2c2nc3c(F)cccc3s2)cn1 (stereo not shown) | 1 to 5 |
| CC(=O)Cn1cc(C(=O)N2CCc3[nH]cnc3C2c2nc3c(F)cccc3s2)cn1 (stereo not shown) | 1 to 5 |
| CC(C)(O)Cn1ncc(C(=O)N2CCc3[nH]cnc3C2c2nc3c(F)cccc3s2)c1Cl (stereo not shown) [listing 2 of 2 here] | 1 to 5 |
| CC(=O)Cn1ncc(C(=O)N2CCc3[nH]cnc3C2c2nc3c(F)cccc3s2)c1Cl (stereo not shown) | 1 to 5 |
| CC(C)(O)c1cc(C(=O)N2CCc3[nH]cnc3C2c2nc3ccccc3s2)no1 (stereo not shown) [listing 2 of 2 here] | 1 to 5 |
| CC(C)(O)c1nc(C(=O)N2CCc3[nH]cnc3C2c2nc3ccccc3s2)no1 (stereo not shown) | 1 to 5 |
| CC(C)(O)c1cc(C(=O)N2CCc3[nH]cnc3C2c2nc3c(F)cccc3s2)no1 (stereo not shown) [listing 2 of 2 here] | 1 to 5 |
| CC(C)(O)c1nc(C(=O)N2CCc3[nH]cnc3C2c2nc3c(F)cccc3s2)no1 (stereo not shown) [listing 2 of 2 here] | 1 to 5 |
| CC(C)(O)c1cc(C(=O)N2CCc3[nH]cnc3C2c2nc3c(F)cccc3s2)ns1 (stereo not shown) [listing 2 of 2 here] | 1 to 5 |
| Cc1nc(C(=O)N2CCc3[nH]cnc3C2c2nc3c(F)cccc3s2)n(C)n1 (stereo not shown) [listing 2 of 2 here] | 1 to 5 |
| O=C(c1oc(C2CCN2)nc1C(F)F)N1CCc2[nH]cnc2C1c1nc2c(F)cccc2s1 (stereo not shown) | 1 to 5 |
